According to patent US20230049952A1, “METHODS AND COMPOUNDS FOR RESTORING MUTANT P53 FUNCTION” (PMV Pharmaceuticals, Inc., priority 2020, published 2023):
Where “and” joins values, the source holds several entries; their conditions need not be identical. Identical values can stand only once.

What was measured:
in vitro = assay: in vitro
Protocol: All working solutions were freshly prepared similarly as described for the test article working solution.
Assay for determining Blood to plasma ratio: Pooled male CD-1 mouse, Sprague-Dawley rat, beagle dog and cynomolgus monkey plasma, and mixed gender human blood with EDTAK2 as anticoagulant were stored on wet ice and used the same day. […] After mixing thoroughly, 0.6 mL of spiked blood was transferred to a 96-well plate in triplicate. Concurrently, control compounds were spiked into each species blood in the same fashion to generate the final concentration of 2.0 μM.
The rest of the spiked blood samples were immediately placed into a humidified incubator with 5% CO2 at 37° C., with constant swiveling at 500 rpm for 60 min on a platform shaker. […] The T60-plasma samples for analysis were obtained by taking 50 μL of plasma from each well, mixed with 50 μL of blank blood and 100 μL of water, followed by addition of 600 μL stop solution. […] All the T0, T60-blood and T60-plasma samples were shaken vigorously at 800 rpm for 30 min followed by the centrifugation at 3220×g at 20° C. for 20 min. 100 μL aliquot of supernatant was diluted with 100 μL of water and mixed well for LC-MS/MS analysis.
Measurement of Hematocrit: The hematocrit (the volume percentage of erythrocytes in blood) was determined in triplicate for each species by centrifuging the blood samples with a HAEMATOKRIT 200 at 9440×g for 5 min.
Data analysis: The ratio of compound concentrations in whole blood over plasma (KB/P) and % Recovery in blood were calculated by the following equations: KB/P=[…]([T60-blood]/[T60-plasma]), where [T60-blood] is the peak area ratios of analyte/internal standard in whole blood sample at 60 min; [T60-plasma] is the peak area ratios of analyte/internal standard in plasma sample at 60 min; [T0-blood] is the peak area ratios of analyte/internal standard in whole blood sample at time zero.

CYP2B6 = assay: CYP induction in human hepatocytes (mRNA and enzyme activity); settings: for % Induction Relative to Positive Control / Fold-Change: CYP2B6 enzyme activity, control article
[1] = Compound 2 and metabolites in rat plasma, 50 mg/kg PO QD×10; type: in vivo; settings: for Average Concentration: rat plasma
Protocol: The proposed metabolite pathway was determined in vitro, and levels of potential metabolites were measured by LC/MS-MS in rat plasma remaining from the dose rising 10-day repeat dose study in rats. Six potential metabolites were quantified in the low (50 mg/kg) single dose rats. […] Rats were rotated between timepoints to form a composite PK curve. […] A 100 μL aliquot of the supernatant was transferred to the sample plate and mixed with 100 μL of water, then the plate was shaken at 800 rpm for 10 min. 0.5-2 μL supernatant was then injected into a Triple Quad 6500+ for LC-MS/MS analysis. The standard curve was generated at 1-3000 ng/mL for the compounds in rat plasma (EDTA-K2).
The male and female PK parameters were averaged together since there was <2-fold variation between the genders. All values deemed below the level of quantification (BLQ) were excluded from the PK parameters calculations.

[2] = Compound 2 50 mg/kg PO QD×1, 24 h
[3] = Compound 2 50 mg/kg PO QD×10, 48 h post tenth dose
[4] = Compound 2 50 mg/kg PO QD×10, 72 h post tenth dose
[5] = Compound 2 50 mg/kg PO QD×10, 96 h post tenth dose

CCN(CC)CCCC(C)Nc1ccnc2cc(Cl)ccc12 (stereo not drawn) [Chloroquine, chloroquine]
recovery at 60 min, 2 μM (in vitro; both, human): 90.8 ± 6.07%
recovery at 60 min, 2 μM (in vitro; male, CD-1, mouse): 99.4 ± 1.7%
recovery at 60 min, 2 μM (in vitro; male, Sprague-Dawley, rat): 100 ± 1.86%
recovery at 60 min, 2 μM (in vitro; male, beagle, dog): 113 ± 3.57%
recovery at 60 min, 2 μM (in vitro; male, cynomolgus monkey): 96.9 ± 1.83%

CCC1(c2ccccc2)C(=O)NC(=O)NC1=O [PB, phenobarbital]
% Induction Relative to Positive Control (CYP2B6; Donor 1): 100%
Fold-Change (CYP2B6; Donor 1): 6.84
% Induction Relative to Positive Control (CYP2B6; Donor 2): 100%
Fold-Change (CYP2B6; Donor 2): 8.56
% Induction Relative to Positive Control (CYP2B6; Donor 3): 100%
Fold-Change (CYP2B6; Donor 3): 3.36
CYP2B6 mRNA % Induction Relative to Positive Control (CYP2B6; Donor 1, 1000 μM): 100%
CYP2B6 mRNA Fold Change (n = 3) Mean (CYP2B6; Donor 1, 1000 μM): 24.4
CYP2B6 mRNA % Induction Relative to Positive Control (CYP2B6; Donor 2, 1000 μM): 100%
CYP2B6 mRNA Fold Change (n = 3) Mean (CYP2B6; Donor 2, 1000 μM): 793
CYP2B6 mRNA % Induction Relative to Positive Control (CYP2B6; Donor 3, 1000 μM): 100%
CYP2B6 mRNA Fold Change (n = 3) Mean (CYP2B6; Donor 3, 1000 μM): 6.85
CYP2B6 mRNA fold increase (positive control) (CYP2B6; donor 2, positive control): 793 fold

CCn1c(C#CCNc2ccc(Cl)cc2)cc2cc(CNC3CCN(C)CC3)ccc21 [Compound 7, 1-(p-Chlorophenylamino)-3-{1-ethyl-5-[(1-methyl-4-piperidylamino)methyl]-1H-indol-2-yl}-2-propyne]
calculated concentration in rat plasma (individual rats) ([1]; Compound 2 50 mg/kg PO QD×1, 1 h, 50 mg/kg): 1.44 ng/mL and 1.36 ng/mL and 1.19 ng/mL and 1.33 ng/mL and 1.49 ng/mL and 1.39 ng/mL
calculated concentration in rat plasma (individual rats) ([1]; Compound 2 50 mg/kg PO QD×1, 2 h, 50 mg/kg): 4.12 ng/mL and 1.95 ng/mL and 1.67 ng/mL and 1.93 ng/mL and 1.81 ng/mL and 1.70 ng/mL
calculated concentration in rat plasma (individual rats) ([1]; Compound 2 50 mg/kg PO QD×1, 4 h, 50 mg/kg): 2.46 ng/mL and 2.66 ng/mL and 2.27 ng/mL and 1.68 ng/mL and 1.81 ng/mL and 2.04 ng/mL
calculated concentration in rat plasma (individual rats) ([1]; Compound 2 50 mg/kg PO QD×1, 8 h, 50 mg/kg): 3.52 ng/mL and 2.72 ng/mL and 2.19 ng/mL and 2.24 ng/mL and 2.20 ng/mL and 2.11 ng/mL
calculated concentration in rat plasma (individual rats) [1, 2]: BLQ
calculated concentration in rat plasma (individual rats) ([1]; Compound 2 50 mg/kg PO QD×10, 1 h post tenth dose, 50 mg/kg): 1.25 ng/mL and 1.46 ng/mL and 1.42 ng/mL and 1.49 ng/mL and 1.92 ng/mL and 1.65 ng/mL
calculated concentration in rat plasma (individual rats) ([1]; Compound 2 50 mg/kg PO QD×10, 2 h post tenth dose, 50 mg/kg): 1.81 ng/mL and 2.19 ng/mL and 1.99 ng/mL and 1.41 ng/mL and 1.79 ng/mL and 1.66 ng/mL
calculated concentration in rat plasma (individual rats) ([1]; Compound 2 50 mg/kg PO QD×10, 4 h post tenth dose, 50 mg/kg): 2.46 ng/mL and 2.18 ng/mL and 2.20 ng/mL and 2.42 ng/mL and 2.00 ng/mL and 1.30 ng/mL
calculated concentration in rat plasma (individual rats) ([1]; Compound 2 50 mg/kg PO QD×10, 8 h post tenth dose, 50 mg/kg): 2.31 ng/mL and 2.45 ng/mL and 2.79 ng/mL and 1.81 ng/mL and 2.20 ng/mL and 2.21 ng/mL
calculated concentration in rat plasma (individual rats) ([1]; Compound 2 50 mg/kg PO QD×10, 24 h post tenth dose, 50 mg/kg): BLQ (3×) and 1.07 ng/mL and 1.06 ng/mL and 1.16 ng/mL
calculated concentration in rat plasma (individual rats) [1, 3]: BLQ
calculated concentration in rat plasma (individual rats) [1, 4]: BLQ
calculated concentration in rat plasma (individual rats) [1, 5]: BLQ
% of Parent ([1]; Day 1, of Compound 2 AUC0-24, rat, 50 mg/kg PO): 0.0%
AUC0-24 ([1]; Day 1, rat, Compound 2 50 mg/kg PO): 16 ng·h/mL
% of Parent ([1]; Day 10, of Compound 2 AUC0-last, rat, 50 mg/kg PO QD×10): 0.0%
AUC0-last ([1]; Day 10, rat, Compound 2 50 mg/kg PO QD×10): 28 ng·h/mL
Average Concentration ([1]; Compound 2 50 mg/kg PO QD×1, 1 h): 1.37 ng/mL
Average Concentration ([1]; Compound 2 50 mg/kg PO QD×1, 2 h): 2.20 ng/mL
Average Concentration ([1]; Compound 2 50 mg/kg PO QD×1, 4 h): 2.15 ng/mL
Average Concentration ([1]; Compound 2 50 mg/kg PO QD×1, 8 h): 2.50 ng/mL
Average Concentration [1, 2]: BLQ
Average Concentration ([1]; Compound 2 50 mg/kg PO QD×10, 1 h post tenth dose): 1.53 ng/mL
Average Concentration ([1]; Compound 2 50 mg/kg PO QD×10, 2 h post tenth dose): 1.81 ng/mL
Average Concentration ([1]; Compound 2 50 mg/kg PO QD×10, 4 h post tenth dose): 2.09 ng/mL
Average Concentration ([1]; Compound 2 50 mg/kg PO QD×10, 8 h post tenth dose): 2.30 ng/mL
Average Concentration ([1]; Compound 2 50 mg/kg PO QD×10, 24 h post tenth dose): 1.10 ng/mL
Average Concentration [1, 3]: BLQ
Average Concentration [1, 4]: BLQ
Average Concentration [1, 5]: BLQ
